The source made the active and inactive calls.
What was measured:
[1] = molecular target: T1, Small ubiquitin-related modifier 1 (Homo sapiens, UniProt P63165); experiment: inhibitors of SUMO1 peptide binding, dose response, biochemical, fluorescence polarization, uHTS hits (AID 624382); format: functional; details: read-out: IC50_Mean
[2] = molecular target: T1, Small ubiquitin-related modifier 1; experiment: inhibitors of SUMO1 partner interactions, dose response, biochemical, FRET (AID 624383); format: functional; details: read-out: IC50_Mean
[3] = molecular target: T2, Replicative DNA helicase DnaB (Mycobacterium tuberculosis, UniProt P9WMR3); experiment: DnaB intein splicing inhibitors, dose response, biochemical, cell-free fluorescence (AID 449749); format: functional
T2 sequence (P9WMR3 whole entry): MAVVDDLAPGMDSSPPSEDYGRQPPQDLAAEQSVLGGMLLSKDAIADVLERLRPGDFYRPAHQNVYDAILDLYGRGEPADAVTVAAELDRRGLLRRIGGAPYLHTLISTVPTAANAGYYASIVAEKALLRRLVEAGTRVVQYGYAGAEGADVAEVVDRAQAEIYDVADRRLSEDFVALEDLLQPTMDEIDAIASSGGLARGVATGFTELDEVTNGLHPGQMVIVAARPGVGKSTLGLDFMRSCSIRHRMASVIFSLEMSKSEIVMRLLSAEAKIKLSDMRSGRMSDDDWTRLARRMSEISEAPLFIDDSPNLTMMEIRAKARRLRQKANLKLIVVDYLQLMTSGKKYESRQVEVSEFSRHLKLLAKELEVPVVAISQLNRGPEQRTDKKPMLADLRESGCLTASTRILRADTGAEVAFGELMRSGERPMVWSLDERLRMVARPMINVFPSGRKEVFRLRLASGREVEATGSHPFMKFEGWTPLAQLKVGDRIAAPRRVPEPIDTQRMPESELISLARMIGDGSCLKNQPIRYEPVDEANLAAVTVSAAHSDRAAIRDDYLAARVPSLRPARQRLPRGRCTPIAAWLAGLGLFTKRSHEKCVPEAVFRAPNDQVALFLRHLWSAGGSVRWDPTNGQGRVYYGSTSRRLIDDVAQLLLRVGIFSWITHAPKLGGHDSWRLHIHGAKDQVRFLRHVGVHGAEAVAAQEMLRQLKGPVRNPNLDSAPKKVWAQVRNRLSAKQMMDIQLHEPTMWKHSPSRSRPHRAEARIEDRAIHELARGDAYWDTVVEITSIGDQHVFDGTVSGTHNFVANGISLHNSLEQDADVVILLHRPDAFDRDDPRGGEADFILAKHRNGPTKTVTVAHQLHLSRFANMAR

[4] = C. albicans growth with fluconazole, confirmation, fluorescence, retest (AID 2467); format: functional, cell-based
cells [5] = format: functional, cell-based
[6] = molecular target: Dual specificity tyrosine-phosphorylation-regulated kinase 1A (Rattus norvegicus, UniProt Q63470); format: biochemical, Homo sapiens
BJ [7] = experiment: cells; format: functional, cell-based; details: Homo sapiens
[8] = NIH-3T3 fibroblast cytotoxicity, dose response, cytotoxicity control, cell-based, fluorescence, Alamar Blue, secondary assay (AID 2327); format: functional;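 further: NIH-3T3 mouse fibroblasts cultured with fluconazole at 8 µg/mL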
INS1 = experiment: beta cell apoptosis inhibitors, cytokine rescue, dose response, luminescence, retest (AID 449756); format: functional, cell-based; details: Rattus norvegicus;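 further: cell death triggered by IL-1 beta plus TNF-alpha plus IFN-gamma mixture; protective hits raise ATP signal compared with cytokine alone wells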
BJ [9] = experiment: cytotoxicity toward BJ-TERT-LT-ST fibroblasts, dose response, cell-based, RAS-independent, luminescence (AID 1935); format: functional; details: Homo sapiens;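 further: BJ fibroblasts immortalized with TERT plus LT and ST oncogenes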
Nonstructural protein 1 = Nonstructural protein 1 (Influenza A virus, UniProt Q194T2); format: functional, Influenza A virus (A/California/07/2009(H1N1))
Chain of Nonstructural protein 1 (Q194T2 whole entry): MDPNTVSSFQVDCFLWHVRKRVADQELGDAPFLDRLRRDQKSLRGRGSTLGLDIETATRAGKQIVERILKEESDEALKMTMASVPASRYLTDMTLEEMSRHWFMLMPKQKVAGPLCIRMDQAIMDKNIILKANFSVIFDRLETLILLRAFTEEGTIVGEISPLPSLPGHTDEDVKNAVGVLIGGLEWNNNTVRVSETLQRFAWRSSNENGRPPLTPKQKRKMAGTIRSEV

[10] = test system: Streptococcus sp. 'group A'; experiment: growth inhibition of control SK(-) GAS strain, dose response, counter-screen for streptokinase expression inhibitor project, luminescence, kanamycin, BacTiterGlo, confirmation (AID 1900); format: functional, organism-based
[11] = molecular target: T3, Heat shock factor protein 1 (Mus musculus, UniProt P38532); experiment: HSF1 potentiators in luciferase reporter cells, confirmation, cell-based, NIH3T3, luminescence, dose retest (AID 435004); format: functional;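 further: stress induced by proteasome inhibitor MG132 added 30 min after compound; luciferase reporter driven by HSF1 response element in NIH3T3 cells; actives raise luminescence as potentiators of the MG132 stress response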
T3 sequence (P38532 whole entry): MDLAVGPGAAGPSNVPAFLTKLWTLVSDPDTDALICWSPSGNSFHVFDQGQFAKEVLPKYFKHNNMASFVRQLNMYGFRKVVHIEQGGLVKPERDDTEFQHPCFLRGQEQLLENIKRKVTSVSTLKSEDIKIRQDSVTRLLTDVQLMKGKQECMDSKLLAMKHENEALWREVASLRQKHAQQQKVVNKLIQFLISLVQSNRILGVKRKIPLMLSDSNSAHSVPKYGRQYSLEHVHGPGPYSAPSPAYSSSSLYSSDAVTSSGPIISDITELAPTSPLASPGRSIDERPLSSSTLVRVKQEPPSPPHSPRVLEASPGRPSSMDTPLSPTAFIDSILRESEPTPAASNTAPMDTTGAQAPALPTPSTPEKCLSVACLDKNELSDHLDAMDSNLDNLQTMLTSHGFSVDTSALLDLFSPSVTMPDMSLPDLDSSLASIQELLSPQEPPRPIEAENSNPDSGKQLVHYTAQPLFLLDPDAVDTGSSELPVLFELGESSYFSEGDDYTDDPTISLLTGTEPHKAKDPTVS

Streptococcus = experiment: Group A Streptococcus viability loss, dose response, counter-screen for streptokinase expression inhibitor project, luminescence, BacTiterGlo (AID 1915); format: functional, organism-based;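 further: potency for reduction of bacterial viability or growth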
BJ [12] = experiment: cytotoxicity toward BJ-TERT fibroblasts, dose response, cell-based, RAS-independent, luminescence (AID 1933); format: functional; details: Homo sapiens
[13] = molecular target: Photoreceptor-specific nuclear receptor (Homo sapiens, UniProt Q9Y5X4); format: functional, cell-based;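 further: CHO-S cells with Gal4-NCOR and VP16-NR2E3 two-hybrid luciferase reporter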
Chain of Photoreceptor-specific nuclear receptor (Q9Y5X4 whole entry, the tested form may be a part): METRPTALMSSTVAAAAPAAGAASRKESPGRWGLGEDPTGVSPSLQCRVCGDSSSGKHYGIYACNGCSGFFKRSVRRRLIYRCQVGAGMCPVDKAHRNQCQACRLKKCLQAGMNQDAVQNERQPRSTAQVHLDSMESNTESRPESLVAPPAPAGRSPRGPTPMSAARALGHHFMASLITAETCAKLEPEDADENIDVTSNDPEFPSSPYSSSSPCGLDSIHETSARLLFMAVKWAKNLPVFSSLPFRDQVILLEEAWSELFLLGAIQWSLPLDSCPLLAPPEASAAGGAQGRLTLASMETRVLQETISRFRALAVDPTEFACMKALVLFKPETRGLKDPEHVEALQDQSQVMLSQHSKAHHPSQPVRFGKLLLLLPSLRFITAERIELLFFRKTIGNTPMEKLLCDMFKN

cells [14] = format: functional, cell-based; remark: listed apart in the source
Protein RecA = molecular target: T4, Protein RecA (Mycobacterium tuberculosis, UniProt P9WHJ3); experiment: Fluorescence Cell-Free Homogeneous Dose Retest to Identify Inhibitors of RecA-Intein Splicing Activity. [Related pubchem assays (depositor defined):AID2097, AID2223, AID489010, AID492950]; format: functional
T4 sequence (P9WHJ3 whole entry): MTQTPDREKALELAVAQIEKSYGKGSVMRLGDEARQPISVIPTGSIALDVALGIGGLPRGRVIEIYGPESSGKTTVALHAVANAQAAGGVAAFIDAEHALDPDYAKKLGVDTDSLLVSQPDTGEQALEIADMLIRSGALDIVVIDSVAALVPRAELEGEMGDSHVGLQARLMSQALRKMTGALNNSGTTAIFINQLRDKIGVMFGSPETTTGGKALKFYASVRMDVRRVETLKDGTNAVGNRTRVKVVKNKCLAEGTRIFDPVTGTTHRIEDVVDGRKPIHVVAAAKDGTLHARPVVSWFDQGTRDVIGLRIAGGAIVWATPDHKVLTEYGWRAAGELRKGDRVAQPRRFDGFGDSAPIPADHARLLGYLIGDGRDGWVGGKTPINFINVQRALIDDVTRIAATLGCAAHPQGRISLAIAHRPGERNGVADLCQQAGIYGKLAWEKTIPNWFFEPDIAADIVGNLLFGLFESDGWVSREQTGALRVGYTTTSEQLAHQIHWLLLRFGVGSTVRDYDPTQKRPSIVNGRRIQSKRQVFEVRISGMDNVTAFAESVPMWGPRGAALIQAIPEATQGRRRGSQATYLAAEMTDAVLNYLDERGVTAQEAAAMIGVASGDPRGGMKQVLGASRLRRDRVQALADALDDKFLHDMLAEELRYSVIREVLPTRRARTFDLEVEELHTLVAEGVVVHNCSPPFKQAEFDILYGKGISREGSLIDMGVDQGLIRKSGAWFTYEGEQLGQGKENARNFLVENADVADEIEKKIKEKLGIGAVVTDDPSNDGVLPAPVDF

Paired box protein Pax-8 = Paired box protein Pax-8 (Homo sapiens, UniProt Q06710); experiment: inhibitors of PAX8-driven TPO luciferase reporter, dose response, RMG-I cells, cherry-pick (AID 687027); format: functional, cell-based;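 further: luciferase reporter driven by Pax8 target thyroperoxidase promoter measured by SteadyGlo luminescence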
Chain of Paired box protein Pax-8 (Q06710 whole entry): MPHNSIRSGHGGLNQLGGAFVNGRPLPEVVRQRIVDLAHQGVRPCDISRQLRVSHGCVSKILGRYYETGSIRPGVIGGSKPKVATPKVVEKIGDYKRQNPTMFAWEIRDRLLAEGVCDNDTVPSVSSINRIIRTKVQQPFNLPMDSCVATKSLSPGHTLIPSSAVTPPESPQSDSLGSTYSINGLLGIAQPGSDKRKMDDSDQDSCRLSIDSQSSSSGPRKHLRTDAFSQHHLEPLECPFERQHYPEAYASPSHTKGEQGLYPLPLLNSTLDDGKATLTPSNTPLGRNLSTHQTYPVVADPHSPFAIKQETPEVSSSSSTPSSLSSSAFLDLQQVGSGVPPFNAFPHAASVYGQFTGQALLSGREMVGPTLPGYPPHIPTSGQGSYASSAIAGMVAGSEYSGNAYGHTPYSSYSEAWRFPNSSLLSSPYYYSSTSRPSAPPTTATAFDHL

[15] = cytotoxicity toward DRD oncogenic fibroblasts, dose response, cell-based, non-viral oncogenic, luminescence (AID 1934); format: functional; details: Homo sapiens
Vero = experiment: cells; format: functional; details: Chlorocebus sabaeus
P388 = experiment: cells; format: functional; details: Mus musculus
[16] = Fluorescence-based cell-based high throughput dose response assay for inhibitors of the interaction of nucleotide-binding oligomerization domain containing 2 (NOD2) and the receptor-interacting serine-threonine kinase 2 (RIPK2).; format: functional; details: Homo sapiens
P388/ADR = experiment: cells; format: functional; details: Mus musculus
[17] = molecular target: Heat shock protein HSP 90-alpha (Homo sapiens, UniProt P07900); format: functional, organism-based
[18] = molecular target: T5, Adenosylmethionine-8-amino-7-oxononanoate aminotransferase (Mycobacterium tuberculosis, UniProt P9WQ81); experiment: Mycobacterium tuberculosis BioA enzyme inhibitor Measured in Biochemical System Using Plate Reader - 2163-02_Inhibitor_Dose_CherryPick_Activity.; format: functional, Mycobacterium tuberculosis UT205
T5 sequence (P9WQ81 whole entry): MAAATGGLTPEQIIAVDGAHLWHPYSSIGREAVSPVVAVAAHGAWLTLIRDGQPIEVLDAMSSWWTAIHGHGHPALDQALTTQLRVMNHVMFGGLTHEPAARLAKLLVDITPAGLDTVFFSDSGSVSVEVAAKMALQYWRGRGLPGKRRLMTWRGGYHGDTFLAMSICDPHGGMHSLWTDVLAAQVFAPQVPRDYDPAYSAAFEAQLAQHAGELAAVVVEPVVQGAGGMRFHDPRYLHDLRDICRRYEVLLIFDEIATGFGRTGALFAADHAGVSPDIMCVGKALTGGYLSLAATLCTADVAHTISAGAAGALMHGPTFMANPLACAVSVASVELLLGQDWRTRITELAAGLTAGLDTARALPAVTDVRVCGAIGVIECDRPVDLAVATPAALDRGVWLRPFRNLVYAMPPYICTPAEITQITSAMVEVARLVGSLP

[19] = StAR promoter reporter inhibition counter-screen, dose response, counter-screen for LRH-1 inverse agonist project, cell-based, luminescence, luciferase reporter (AID 651969); format: functional
[20] = molecular target: Nuclear receptor subfamily 5 group A member 2 (Homo sapiens, UniProt O00482); format: functional, cell-based;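 further: HEK293T cells transfected with LRH-1 and a StAR promoter luciferase reporter; potency for inhibitors that lower LRH-1 driven reporter light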
Chain of Nuclear receptor subfamily 5 group A member 2 (O00482 whole entry): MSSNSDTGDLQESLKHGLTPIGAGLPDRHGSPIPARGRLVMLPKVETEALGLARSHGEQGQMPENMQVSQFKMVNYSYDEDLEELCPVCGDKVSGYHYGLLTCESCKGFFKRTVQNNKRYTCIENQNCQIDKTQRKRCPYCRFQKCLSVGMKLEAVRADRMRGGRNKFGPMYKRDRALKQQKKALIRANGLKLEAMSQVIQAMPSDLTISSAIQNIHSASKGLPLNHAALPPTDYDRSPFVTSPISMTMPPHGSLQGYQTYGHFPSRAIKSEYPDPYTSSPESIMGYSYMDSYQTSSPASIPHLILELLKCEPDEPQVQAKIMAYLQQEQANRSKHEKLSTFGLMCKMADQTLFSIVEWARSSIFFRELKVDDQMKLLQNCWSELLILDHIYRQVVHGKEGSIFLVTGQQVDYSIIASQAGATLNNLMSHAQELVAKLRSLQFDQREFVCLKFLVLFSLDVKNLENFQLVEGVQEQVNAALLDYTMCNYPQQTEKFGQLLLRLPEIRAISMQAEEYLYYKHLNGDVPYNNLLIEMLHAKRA

Steroidogenic factor 1 = Steroidogenic factor 1 (Homo sapiens, UniProt Q13285); experiment: Counterscreen for inverse agonists of the liver receptor homolog-1 (LRH-1; NR5A2): Luminescence-based cell-based high throughput dose response assay to identify inverse agonists of the Steroidogenic Factor 1 Nuclear Receptor (SF1; NR5A1).; format: functional
Chain of Steroidogenic factor 1 (Q13285 whole entry): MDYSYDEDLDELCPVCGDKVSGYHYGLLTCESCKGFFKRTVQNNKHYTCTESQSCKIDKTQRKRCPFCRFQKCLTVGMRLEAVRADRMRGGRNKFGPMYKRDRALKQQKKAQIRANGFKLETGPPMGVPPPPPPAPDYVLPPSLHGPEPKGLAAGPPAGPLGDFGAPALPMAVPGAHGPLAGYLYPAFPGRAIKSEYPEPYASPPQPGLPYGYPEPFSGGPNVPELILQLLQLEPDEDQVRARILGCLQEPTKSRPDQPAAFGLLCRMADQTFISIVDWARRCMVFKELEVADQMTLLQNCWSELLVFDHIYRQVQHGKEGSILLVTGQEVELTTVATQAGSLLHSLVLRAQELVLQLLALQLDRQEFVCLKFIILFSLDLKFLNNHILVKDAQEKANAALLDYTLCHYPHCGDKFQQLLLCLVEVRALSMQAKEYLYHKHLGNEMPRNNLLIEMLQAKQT

T1 sequence (P63165 whole entry): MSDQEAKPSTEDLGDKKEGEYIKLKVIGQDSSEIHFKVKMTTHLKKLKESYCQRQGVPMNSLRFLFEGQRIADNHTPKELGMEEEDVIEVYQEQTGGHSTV

C=CCCC(=O)Nc1nc(C)c(-c2csc(Nc3cccc(OC)c3)n2)s1
IC50 [1]: > 66.6 µM (inactive) | IC50 [2]: 17.7 µM (active)

Oc1[nH]c2ccc(Br)cc2c1N=NC(=S)N1CCOCC1
AC50 [3]: > 380 µM (inactive) | EC50 [4]: 3.18 µM (active) | EC50 (cells [5]): > 350 µM (not active) | AC50 [6]: 7.39 µM (active) | EC50 (BJ [7]): 12.8 µM (inconclusive) | EC50 [8]: > 150 µM (inconclusive) | AC50 (INS1): 1.6 µM (active) | EC50 (BJ [9]): 5.1 µM (inconclusive) | IC50 (Nonstructural protein 1): 19.9 µM (active) | EC50 [10]: < 0.06 µM (active) | EC50 [11]: > 260 µM (inactive) | EC50 (Streptococcus): 0.167 µM (active) | EC50 (BJ [12]): 1.81 µM (inconclusive) | IC50 [13]: 1.81 µM (active) | EC50 (cells [14]): 137 µM (active) | EC50 (Protein RecA): 22.7 µM (active) | AC50 (Paired box protein Pax-8): 1.55 µM (active) | EC50 [15]: 7.46 µM (inconclusive)

COc1ccc(CC2C(=O)NC(C)C(=O)N(C)C3Cc4ccc(cc4)Oc4cc(ccc4O)CC(C(=O)NC(C)C(=O)NC(C)C(=O)N2C)N(C)C3=O)cc1 (stereo unspecified)
CC50 (Vero): 3.44 µM (active) | GI50 (P388): 0.0175 µM (active) | IC50 [16]: 49.8 µM (inactive) | GI50 (P388/ADR): 3.94 µM (inactive) | AC50 (Paired box protein Pax-8): < 0.26 µM (active)

CC1CC(C)C(=NNC(N)=O)C(C(O)CC2CCC(=O)NC2=O)C1 (stereo unspecified)
CC50 (Vero): > 25 µM (active) | AC50 [17]: < 0.195 µM (active) | IC50 [13]: 2.53 µM (active)

O=C(Nc1ccc(F)cc1)NC1CCN(Cc2nnnn2Cc2ccco2)CC1
AC50 [18]: 3.58 µM (active)

CC(=O)c1cccc(NC(=O)c2cccc(N3C(=O)c4ccccc4C3=O)c2)c1
IC50 [1]: > 66.6 µM (inactive) | IC50 [2]: 8.03 µM (active)

O=C(CCS(=O)(=O)c1ccc(Br)cc1)N1CCCCCC1
IC50 [1]: > 66.6 µM (inactive) | IC50 [2]: 13 µM (active)

Cc1cc(Br)ccc1NC(=O)CN1C(=O)CCC1=O
IC50 [19]: 35.9 µM (inactive) | IC50 [20]: 12 µM (inactive) | IC50 (Steroidogenic factor 1): 0.877 µM (active)

Source: ChEMBL document CHEMBL1201862, “PubChem BioAssay data set” (2004)
